Here are results for four molecules from ChEMBL document CHEMBL3046389, “Synthesis and biological evaluation of novel hydroquinone dimethyl ethers as potential anticancer and antimicrobial agents” (2013).

Values after ≈ are worked out from the molar mass of the structure shown.

Usually MFC stands for the lowest tested concentration that kills the fungus rather than only halting it. Read a low MFC as greater fungicidal potency. Broadly, the MIC is the lowest concentration found to suppress growth. As usually defined, the MBC is the lowest tested concentration that kills the bacteria rather than only halting them.

Holding throughout (assay type): functional
For assay [1], the system named is Candida albicans. Briefly: Antimicrobial activity against Candida albicans DSM 70014 after 48 hr by two-fold serial broth dilution method. Particulars: DSM 70014, 48 h.
In assay [2] the test system is Staphylococcus aureus. The assay can be described thus: Antimicrobial activity against Staphylococcus aureus DSM 1104 after 48 hr by two-fold serial broth dilution method. Particulars: DSM 1104, 48 h. (Broth dilution looks for growth in wells or tubes with falling amounts of substance.)
The subject of assay [3] is Pseudomonas aeruginosa. The assay can be described thus: Antimicrobial activity against Pseudomonas aeruginosa ATCC 10145 after 48 hr by two-fold serial broth dilution method. Particulars: ATCC 10145, 48 h.
The test system of the next assay is Bacillus subtilis. Briefly: Antimicrobial activity against Bacillus subtilis ATCC 6633 after 48 hr by two-fold serial broth dilution method. Particulars: ATCC 6633, 48 h.
Assay [4] concerns Staphylococcus aureus. Briefly: Antimicrobial activity against Staphylococcus aureus DSM 1104 after 48 hr by two-fold serial broth dilution method relative to ampicillin.
Another assay deals with Escherichia coli. Briefly: Antimicrobial activity against Escherichia coli ATCC 11775 after 48 hr by two-fold serial broth dilution method. Particulars: ATCC 11775, 48 h.
In another assay the test system is SR. Briefly: Growth inhibition of Homo sapiens (human) SR cells at 10 uM after 48 hr by SRB assay. Particulars: read-out: GI. For orientation: The SRB assay estimates cell density from bound dye.
Another assay has as its system HCT-15. Briefly: Growth inhibition of Homo sapiens (human) HCT15 cells at 10 uM after 48 hr by SRB assay. Particulars: HCT-15, 48 h, read-out: GI.
Another assay has as its system A549. The assay can be described thus: Growth inhibition of Homo sapiens (human) A549/ATCC cells at 10 uM after 48 hr by SRB assay. Particulars: A549, 48 h, read-out: GI.
A further assay relates to M14. Briefly: Growth inhibition of Homo sapiens (human) M14 cells at 10 uM after 48 hr by SRB assay. Particulars: M14, 48 h, read-out: GI.
The subject of a further assay is RXF 393. The assay can be described thus: Growth inhibition of Homo sapiens (human) RXF393 cells at 10 uM after 48 hr by SRB assay. Particulars: RXF 393, 48 h, read-out: GI.
The test system of a further assay is K562. The assay can be described thus: Growth inhibition of Homo sapiens (human) K562 cells at 10 uM after 48 hr by SRB assay. Particulars: K562, 48 h, read-out: GI.
For the next assay, the system named is SF-295. Briefly: Growth inhibition of Homo sapiens (human) SF295 cells at 10 uM after 48 hr by SRB assay. Particulars: SF-295, 48 h, read-out: GI.
The test system of the next assay is MCF7. Briefly: Growth inhibition of Homo sapiens (human) MCF7 cells at 10 uM after 48 hr by SRB assay. Particulars: MCF7, 48 h, read-out: GI.
A further assay has as its system T47D. Briefly: Growth inhibition of Homo sapiens (human) T47D cells at 10 uM after 48 hr by SRB assay. Particulars: read-out: GI.
For the next assay, the system named is EKVX. The assay can be described thus: Growth inhibition of Homo sapiens (human) EKVX cells at 10 uM after 48 hr by SRB assay. Particulars: read-out: GI.
In a further assay the test system is KM12. The assay can be described thus: Growth inhibition of Homo sapiens (human) KM12 cells at 10 uM after 48 hr by SRB assay. Particulars: KM12, 48 h, read-out: GI.
The next assay has as its system PC-3. The assay can be described thus: Growth inhibition of Homo sapiens (human) PC3 cells at 10 uM after 48 hr by SRB assay. Particulars: PC-3, 48 h, read-out: GI.
For a further assay, the system named is IGROV-1. The assay can be described thus: Growth inhibition of Homo sapiens (human) IGROV1 cells at 10 uM after 48 hr by SRB assay. Particulars: IGROV-1, 48 h, read-out: GI.
A further assay deals with HL-60(TB). Briefly: Growth inhibition of Homo sapiens (human) HL-60(TB) cells at 10 uM after 48 hr by SRB assay. Particulars: HL-60, 48 h, read-out: GI.
The next assay has as its system UO-31. Briefly: Growth inhibition of Homo sapiens (human) UO31 cells at 10 uM after 48 hr by SRB assay. Particulars: UO-31, 48 h, read-out: GI.
The subject of a further assay is HCT-116. Briefly: Growth inhibition of Homo sapiens (human) HCT116 cells at 10 uM after 48 hr by SRB assay. Particulars: HCT-116, 48 h, read-out: GI.
A further assay has as its system MDA-MB-435. Briefly: Growth inhibition of Homo sapiens (human) MDA-MB-435 cells at 10 uM after 48 hr by SRB assay. Particulars: MDA-MB-435, 48 h, read-out: GI.
A further assay concerns ACHN. The assay can be described thus: Growth inhibition of Homo sapiens (human) ACHN cells at 10 uM after 48 hr by SRB assay. Particulars: read-out: GI.
For a further assay, the system named is SK-MEL-5. The assay can be described thus: Growth inhibition of Homo sapiens (human) SK-MEL-5 cells at 10 uM after 48 hr by SRB assay. Particulars: SK-MEL-5, 48 h, read-out: GI.
The next assay deals with NCI-H23. Briefly: Growth inhibition of Homo sapiens (human) NCI-H23 cells at 10 uM after 48 hr by SRB assay. Particulars: NCI-H23, 48 h, read-out: GI.
The next assay deals with MDA-MB-468. The assay can be described thus: Growth inhibition of Homo sapiens (human) MDA-MB-468 cells at 10 uM after 48 hr by SRB assay. Particulars: MDA-MB-468, 48 h, read-out: GI.
The subject of a further assay is UACC-62. The assay can be described thus: Growth inhibition of Homo sapiens (human) UACC62 cells at 10 uM after 48 hr by SRB assay. Particulars: UACC-62, 48 h, read-out: GI.
In another assay the test system is CAKI-1. Briefly: Growth inhibition of Homo sapiens (human) CAKI-1 cells at 10 uM after 48 hr by SRB assay. Particulars: CAKI-1, 48 h, read-out: GI.
Another assay has as its system Malme-3M. Briefly: Growth inhibition of Homo sapiens (human) MALME-3M cells at 10 uM after 48 hr by SRB assay. Particulars: read-out: GI.
Assay [5] has as its system Candida albicans. Briefly: Antimicrobial activity against Candida albicans DSM 70014 after 48 hr by two-fold serial broth dilution method relative to clotrimazole.
In assay [6] the test system is Pseudomonas aeruginosa. Briefly: Ratio of ampicillin MIC to compound MIC for Pseudomonas aeruginosa ATCC 10145 after 48 hr by two-fold serial broth dilution method.
In another assay the test system is HOP-92. The assay can be described thus: Growth inhibition of Homo sapiens (human) HOP92 cells at 10 uM after 48 hr by SRB assay. Particulars: HOP-92, 48 h, read-out: GI.

Molecule `COc1ccc(OC)c(/C=C/c2nnc(S)n2-c2ccc(C)cc2)c1` showed an MFC against Candida albicans [1] of 50 µg/mL (≈ 141 µM). The MIC against Candida albicans [1] was 25 µg/mL (≈ 70.7 µM); with Staphylococcus aureus [2] it was 12.5 µg/mL (≈ 35.4 µM); against Pseudomonas aeruginosa [3], 50 µg/mL (≈ 141 µM); against Bacillus subtilis, 12.5 µg/mL (≈ 35.4 µM); against Escherichia coli it was 25 µg/mL (≈ 70.7 µM). The MBC is 25 µg/mL (≈ 70.7 µM) against Staphylococcus aureus [2], 50 µg/mL (≈ 141 µM) with Pseudomonas aeruginosa [3], 25 µg/mL (≈ 70.7 µM) with Bacillus subtilis and 50 µg/mL (≈ 141 µM) in the assay on Escherichia coli. The Activity in the assay with Staphylococcus aureus [4] is recorded as 40%.

Consider `COc1ccc(OC)c(/C=C/c2nnc(SC)n2-c2ccc(Cl)cc2)c1`, for which the inhibition of growth at 10 µM with SR was 58.5%; in the assay on HCT-15, 41.1%; with A549 it was 35.2%; in the assay on M14, 40%; in the assay with RXF 393, 40.3%; with K562, 69.3%. Also, the inhibition of growth at 10 µM was 53.2% in the assay on SF-295; 53.3% in the assay on MCF7; 57.2% with T47D; 38.6% in the assay with EKVX; 46.9% with KM12; 61.1% in the assay with PC-3. The inhibition of growth at 10 µM with IGROV-1 turned out to be 38.2%; in the assay on HL-60(TB), 34.3%; in the assay with UO-31, 60.4%; in the assay with HCT-116, 40.2%; with MDA-MB-435, 91.3%; in the assay on ACHN, 32.1%. In addition, the inhibition of growth at 10 µM in the assay with SK-MEL-5 came out at 46.6%; with NCI-H23, 40.3%; in the assay with MDA-MB-468 it was 74.8%; with UACC-62 it was 50.5%; with CAKI-1 it was 35.5%; in the assay on Malme-3M, 55.2%. The molecule also yielded a minimal fungicidal concentration (MFC) in the assay on Candida albicans [1] of 100 µg/mL (≈ 258 µM). Moreover, the minimum inhibitory concentration (MIC) was 50 µg/mL (≈ 129 µM) against Candida albicans [1]; 100 µg/mL (≈ 258 µM) against Staphylococcus aureus [2]; 50 µg/mL (≈ 129 µM) against Pseudomonas aeruginosa [3]; 100 µg/mL (≈ 258 µM) against Bacillus subtilis; 100 µg/mL (≈ 258 µM) with Escherichia coli. Moreover, the MBC stood at 100 µg/mL (≈ 258 µM) in the assay with Staphylococcus aureus [2], 50 µg/mL (≈ 129 µM) against Pseudomonas aeruginosa [3], 100 µg/mL (≈ 258 µM) in the assay on Bacillus subtilis and 100 µg/mL (≈ 258 µM) against Escherichia coli.

`COc1ccc(OC)c(/C=C/c2nnc(SCC(=O)c3cc(O)ccc3O)n2-c2ccc(C)cc2)c1` had an MFC against Candida albicans [1] of 25 µg/mL (≈ 49.6 µM). For the same molecule, the minimal inhibitory concentration (MIC) in the assay on Candida albicans [1] was 12.5 µg/mL (≈ 24.8 µM); in the assay on Staphylococcus aureus [2], 12.5 µg/mL (≈ 24.8 µM); with Pseudomonas aeruginosa [3], 50 µg/mL (≈ 99.3 µM); in the assay with Bacillus subtilis, 25 µg/mL (≈ 49.6 µM); in the assay with Escherichia coli, 25 µg/mL (≈ 49.6 µM). The minimum bactericidal concentration (MBC) was 25 µg/mL (≈ 49.6 µM) in the assay on Staphylococcus aureus [2], 50 µg/mL (≈ 99.3 µM) in the assay on Pseudomonas aeruginosa [3], 50 µg/mL (≈ 99.3 µM) against Bacillus subtilis and 50 µg/mL (≈ 99.3 µM) with Escherichia coli. The Activity with Candida albicans [5] and with Staphylococcus aureus [4] was 40% in each case.

`COc1ccc(OC)c(/C=C/c2nnc(Nc3ccccc3)o2)c1`: the Ratio with Pseudomonas aeruginosa [6] is reported as 4. Besides, the inhibition of growth at 10 µM in the assay with HOP-92 was 37.5%. The MFC in the assay with Candida albicans [1] was 50 µg/mL (≈ 155 µM). Also, the MIC against Candida albicans [1] came out at 50 µg/mL (≈ 155 µM); against Staphylococcus aureus [2], 25 µg/mL (≈ 77.3 µM); with Pseudomonas aeruginosa [3], 12.5 µg/mL (≈ 38.7 µM); with Bacillus subtilis, 12.5 µg/mL (≈ 38.7 µM); in the assay on Escherichia coli, 50 µg/mL (≈ 155 µM). The MBC against Staphylococcus aureus [2] was determined as 50 µg/mL (≈ 155 µM); against Pseudomonas aeruginosa [3], 25 µg/mL (≈ 77.3 µM); against Bacillus subtilis, 25 µg/mL (≈ 77.3 µM); in the assay on Escherichia coli, 50 µg/mL (≈ 155 µM).
